Several values for one entry are separate records, joined by “and”; a condition that tells them apart may be missing. Identical values can stand only once. Toxic doses and inconclusive results are not listed.
Tested on: L1210 leukemia ip in BDF1 mice, survival T/C
Assay: NCI In Vivo Anticancer Drug Screen. Data for tumor model L1210 Leukemia (intraperitoneal) in B6D2F1 (BDF1) mice
Details: endpoint: mean survival time, higher = longer survival
Summary of the method: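 Survival endpoint. Drug-treated group vs vehicle group, expressed as T divided by C. Tumor passaged by transplantation.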

[1] = dose: 100.0 mg/kg/injection, schedule: Q04DX002 (ip), vehicle: Klucel (hydroxypropylcellulose) (HPC)
[2] = dose: 200.0 mg/kg/injection, schedule: Q04DX002 (ip), vehicle: Klucel (hydroxypropylcellulose) (HPC)
[3] = dose: 400.0 mg/kg/injection, schedule: Q04DX002 (ip), vehicle: Klucel (hydroxypropylcellulose) (HPC)
[4] = dose: 100.0 mg/kg/injection, schedule: Q01DX001 (ip), vehicle: carboxymethylcellulose (CMC)
[5] = dose: 200.0 mg/kg/injection, schedule: Q01DX001 (ip), vehicle: carboxymethylcellulose (CMC)
[6] = dose: 400.0 mg/kg/injection, schedule: Q01DX001 (ip), vehicle: carboxymethylcellulose (CMC)
[7] = dose: 100.0 mg/kg/injection, schedule: Q04DX003 (ip), vehicle: Klucel (hydroxypropylcellulose) (HPC)
[8] = dose: 100.0 mg/kg/injection, schedule: Q04DX003 (ip), vehicle: saline

How did the T/C (dose: 75.0 mg/kg/injection, schedule: Q01DX001 (ip), vehicle: other) turn out when Nc1ccnc2cc(Cl)ccc12 was run?
The T/C was 103 % of control.

What about the T/C (dose: 150.0 mg/kg/injection, schedule: Q01DX001 (ip), vehicle: other) of the same compound?
Its T/C is 100 % of control.

Which T/C (dose: 100.0 mg/kg/injection, schedule: Q04DX002 (ip), vehicle: saline) does the source give for CNC(=O)Oc1ccc2c(C)cc(=O)oc2c1 here?
The T/C was 94 % of control.

And the T/C (dose: 200.0 mg/kg/injection, schedule: Q04DX002 (ip), vehicle: saline)?
The T/C was 105 % of control.

For COCn1c2ccccc2c2nc(-c3ccncc3)nc(-c3ccncc3)c21, which T/C [1] is on record?
Its T/C is 98 % of control.

What about the T/C [2] of the same compound?
The T/C was 98 % of control.

And the T/C [3]?
Its T/C is 95 % of control.

With COc1cc2cc[n+](C)c(Cc3ccccc3)c2cc1OC as the compound, how does the T/C (dose: 25.0 mg/kg/injection, schedule: Q01DX009 (ip), vehicle: saline with Tween-80) read?
The T/C was 111 % of control.

And the T/C (dose: 25.0 mg/kg/injection, schedule: Q04DX003 (ip), vehicle: saline with Tween-80)?
The T/C was 105 % of control.

What about the T/C (dose: 50.0 mg/kg/injection, schedule: Q01DX009 (ip), vehicle: saline with Tween-80) of the same compound?
The T/C was 107 % of control.

What about the T/C (dose: 50.0 mg/kg/injection, schedule: Q04DX003 (ip), vehicle: saline with Tween-80) of the same compound?
Its T/C is 103 % of control.

What about the T/C (dose: 100.0 mg/kg/injection, schedule: Q04DX003 (ip), vehicle: saline with Tween-80) of the same compound?
Its T/C is 96 % of control.

What does the source list for C=COCCCCCCCCCCCC(CCCCCC)OC=C (centres undefined)?
T/C [1]: 94 % of control; T/C [2]: 105 % of control

How did the T/C [4] turn out when O=C(Nc1ccc2c(c1)C(S)c1ccccc1-2)C(F)(F)F (centres undefined) was run?
Its T/C is 96 % of control.

And the T/C [5]?
Its T/C is 101 % of control.

And the T/C [6]?
Its T/C is 95 % of control.

Which T/C (dose: 75.0 mg/kg/injection, schedule: Q01DX001 (ip), vehicle: saline) does the source give for C[N+](C)(C)C1C2(CCCCC2)NC(=O)C12CCCCC2 (centres undefined) here?
The T/C was 96 % of control.

How did the T/C [1] turn out when CCOC(=O)C12CCCC1=CC(=O)CC2 (centres undefined) was run?
The T/C was 107 % of control.

What about the T/C [2] of the same compound?
The T/C was 121 % of control.

What about the T/C [3] of the same compound?
Its T/C is 104 % of control.

Which results are given for O=c1[nH]nc(SC2CCCCC2)c(=O)[nH]1?
T/C (dose: 100.0 mg/kg/injection, schedule: Q01DX001 (ip), vehicle: saline): 108 % of control; T/C (dose: 200.0 mg/kg/injection, schedule: Q01DX001 (ip), vehicle: saline): 108 % of control; T/C (dose: 400.0 mg/kg/injection, schedule: Q01DX001 (ip), vehicle: saline): 106 % of control

O=C1NC2(CCc3ccccc32)C(=O)O1 (centres undefined) was tested. Which T/C [7] did it give?
Its T/C is 110 % of control.

And the T/C (dose: 200.0 mg/kg/injection, schedule: Q04DX003 (ip), vehicle: Klucel (hydroxypropylcellulose) (HPC))?
Its T/C is 100 % of control.

And the T/C (dose: 400.0 mg/kg/injection, schedule: Q04DX003 (ip), vehicle: Klucel (hydroxypropylcellulose) (HPC))?
Its T/C is 98 % of control.

Cc1ccc2nsnc2c1[N+](=O)[O-] was tested. Which T/C [1] did it give?
The T/C was 107 % of control.

What about the T/C [2] of the same compound?
The T/C was 118 % of control.

What about the T/C [3] of the same compound?
The T/C was 102 % of control.

With CC1=NN(c2ccccc2)C(=O)C1N=Nc1ccc(S(=O)(=O)Nc2ncccn2)cc1 (centres undefined) as the compound, how does the T/C [4] read?
The T/C was 100 % of control.

And the T/C [5]?
Its T/C is 94 % of control.

What about the T/C [6] of the same compound?
Its T/C is 89 % of control.

For Nc1cnccc1Nc1ccc(-c2ccccc2)cc1, which T/C (dose: 100.0 mg/kg/injection, schedule: Q01DX009 (ip), vehicle: saline with Tween-80) is on record?
Its T/C is 92 % of control.

How did the T/C [8] turn out when CCOC(=O)C(=CN1CCCCC1)C(=O)OCC was run?
The T/C was 98 % of control.

And the T/C (dose: 200.0 mg/kg/injection, schedule: Q04DX003 (ip), vehicle: saline)?
Its T/C is 101 % of control.

What about the T/C (dose: 400.0 mg/kg/injection, schedule: Q04DX003 (ip), vehicle: saline) of the same compound?
The T/C was 95 % of control.

What does the source list for NC1CCC(CC2CCCC2)CC1 (centres undefined)?
T/C (dose: 25.0 mg/kg/injection, schedule: Q04DX003 (ip), vehicle: Klucel (hydroxypropylcellulose) (HPC)): 96 % of control; T/C (dose: 50.0 mg/kg/injection, schedule: Q04DX003 (ip), vehicle: Klucel (hydroxypropylcellulose) (HPC)): 93 % of control; T/C [7]: 104 % of control and 90 % of control

What does the source list for Cc1ccc(CCNc2ncnc(Cl)c2N)cc1?
T/C (dose: 50.0 mg/kg/injection, schedule: Q01DX001 (ip), vehicle: other): 88 % of control; T/C (dose: 100.0 mg/kg/injection, schedule: Q01DX001 (ip), vehicle: other): 92 % of control

O=C(Nc1ccc(N=C(Nc2ccccc2)c2ccccc2)cc1)c1ccc(C(=O)Nc2ccc(N=C(Nc3ccccc3)c3ccccc3)cc2)cc1 was tested. Which T/C (dose: 15.0 mg/kg/injection, schedule: Q01DX Z (ip), vehicle: carboxymethylcellulose (CMC)) did it give?
Its T/C is 93 % of control.

And the T/C (dose: 30.0 mg/kg/injection, schedule: Q01DX Z (ip), vehicle: carboxymethylcellulose (CMC))?
The T/C was 93 % of control.

What about the T/C (dose: 60.0 mg/kg/injection, schedule: Q01DX Z (ip), vehicle: carboxymethylcellulose (CMC)) of the same compound?
The T/C was 97 % of control.

And the T/C (dose: 120.0 mg/kg/injection, schedule: Q01DX Z (ip), vehicle: carboxymethylcellulose (CMC))?
Its T/C is 95 % of control.

Which results are given for CCc1ccc(N=Nc2c(F)c(F)c(NC(C)=O)c(F)c2F)cc1?
T/C [4]: 102 % of control; T/C [5]: 91 % of control; T/C [6]: 91 % of control

Which T/C [4] does the source give for C=C(NC(=O)C(=C)NC(=O)c1csc(C2=NC3c4csc(n4)C4NC(=O)c5csc(n5)C(C(C)(O)C(C)O)NC(=O)C5CSC(=N5)/C(=C/C)NC(=O)C(C(C)O)NC(=O)c5csc(n5)C3(CC2)NC(=O)C(C)NC(=O)C(=C)NC(=O)C(C)NC(=O)C(C(C)CC)NC2C=Cc3c(C(C)O)cc(nc3C2O)C(=O)OC4C)n1)C(N)=O (centres undefined) here?
Its T/C is 110 % of control.

What about the T/C [8] of the same compound?
Its T/C is 113 % of control.

And the T/C (dose: 178.0 mg/kg/injection, schedule: Q01DX001 (ip), vehicle: saline)?
The T/C was 117 % of control.

What about the T/C [5] of the same compound?
The T/C was 112 % of control.

What about the T/C [6] of the same compound?
Its T/C is 112 % of control.

Source: PubChem BioAssay AID248 (DTP/NCI, 2004)
